Experimental data taken from patent US9370185B2, “Herbicidal composition” (ISHIHARA SANGYO KAISHA, LTD., priority 2011, dated 2016).

What was measured:
Assay type in all cases: in vivo
[1] = system: velvetleaf (Abutilon theophrasti Medic.); test: Test Example 7: soil treatment, velvetleaf, visual growth inhibition; conditions: 24 h, soil treatment one day after sowing, 28th day after treatment, read-out: Growth Inhibition Rate of Velvetleaf (%) Measured Value
Method: (§1) Growth inhibition rate (%)=weed control rate of from 0% (equivalent to the non-treated plot) to 100% (complete kill)
Upland field soil was put into a 1/300,000-ha pot, and seeds of velvetleaf (Abutilon theophrasti Medic.) were sown. After one day, prescribed amounts of an oil-based suspension (trade name: ONEHOPE NYUZAI, manufactured by Ishihara Sangyo Kaisha, Ltd.) containing nicosulfuron as an active ingredient and a wettable powder containing pyroxasulfone as an active ingredient were diluted with water (corresponding to 1,000 L/ha) and applied for soil treatment by a small sprayer.
On the 28th day after the treatment, the state of growth of the velvetleaf was visually observed and examined.

[2] = system: velvetleaf (Abutilon theophrasti Medic.); test: Test Example 3: soil treatment, velvetleaf, visual growth inhibition; conditions: 24 h, soil treatment one day after sowing, 21st day after treatment, read-out: Growth Inhibition Rate of Velvetleaf (%) Measured Value
Method: as §1
(§2) Upland field soil was put into a 1/1,000,000-ha pot, and seeds of velvetleaf (Abutilon theophrasti Medic.) were sown. After one day, prescribed amounts of SHIBAGEN DF (trade name) and a wettable powder containing pyroxasulfone as an active ingredient were diluted with water (corresponding to 1,000 L/ha) and applied for soil treatment by a small sprayer.
On the 21st day after the treatment, the state of growth of the velvetleaf was visually observed and examined.

[3] = system: black nightshade (Solanum nigrum L.); test: Test Example 1: foliar treatment of black nightshade, visual growth inhibition; conditions: foliar treatment at 2.3 to 2.5 leaf stage, 21st day after treatment, read-out: Growth Inhibition Rate of Black nightshade (%) Measured Value
Method: Upland field soil was put into a 1/1,000,000-ha pot, and seeds of black nightshade (Solanum nigrum L.) were sown. When the black nightshade reached the 2.3 to 2.5 leaf stage, prescribed amounts of a water dispersible granules containing flazasulfuron as an active ingredient (trade name: SHIBAGEN DF, manufactured by Ishihara Sangyo Kaisha, Ltd.) and a wettable powder containing pyroxasulfone as an active ingredient were diluted with water (corresponding to 1,000 L/ha) containing 0.05% by volume of an agricultural adjuvant (trade name: KUSARINOH, manufactured by NIHON NOHYAKU Co., Ltd.) and applied for foliar treatment by a small sprayer.
On the 21st day after the treatment, the state of growth of the black nightshade was visually observed and examined, followed by evaluation according to the following evaluation criteria. A growth inhibition rate (%) (measured value) and a growth inhibition rate (%) (calculated value) as calculated according to the foregoing Colby's method are shown in Table 1.
as §1

[4] = system: common lambsquarters (Chenopodium album L.); test: Test Example 4: soil treatment, common lambsquarters, visual growth inhibition; conditions: 24 h, soil treatment one day after sowing, 27th day after treatment, read-out: Growth Inhibition Rate of Common lambsquarters (%) Measured Value
Method: as §1
Upland field soil was put into a 1/1,000,000-ha pot, and seeds of common lambsquarters (Chenopodium album L.) were sown. After one day, prescribed amounts of a water-based suspension containing nicosulfuron as an active ingredient and a wettable powder containing pyroxasulfone as an active ingredient were diluted with water (corresponding to 300 L/ha) and applied for soil treatment by a small sprayer.
On the 27th day after the treatment, the state of growth of the common lambsquarters was visually observed and examined.

[5] = system: crabgrass (Digitaria sanguinalis (L.) Scop.); test: Test Example 2: foliar treatment of crabgrass, visual growth inhibition; conditions: foliar treatment at 4.0 to 4.5 leaf stage, 21st day after treatment, read-out: Growth Inhibition Rate of Crabgrass (%) Measured Value
Method: as §1
Upland field soil was put into a 1/1,000,000-ha pot, and seeds of crabgrass (Digitaria sanguinalis (L.) Scop.) were sown. When the crabgrass reached the 4.0 to 4.5 leaf stage, prescribed amounts of SHIBAGEN DF (trade name) and a wettable powder containing pyroxasulfone as an active ingredient were diluted with water (corresponding to 1,000 L/ha) containing 0.05% by volume of KUSARINOH (trade name) and applied for foliar treatment by a small sprayer.
On the 21st day after the treatment, the state of growth of the crabgrass was visually observed and examined.

[6] = system: black nightshade (Solanum nigrum L.); test: Test Example 5: soil treatment, black nightshade, visual growth inhibition; conditions: 24 h, soil treatment one day after sowing, 14th day after treatment, read-out: Growth Inhibition Rate of Black nightshade (%) Measured Value
Method: as §1
as §2, with “1/300,000-ha” for “1/1,000,000-ha”, “black nightshade (Solanum nigrum L.)” for “velvetleaf (Abutilon theophrasti Medic.)”
On the 14th day after the treatment, the state of growth of the black nightshade was visually observed and examined.

[7] = system: wild oat (Avena fatua L.); test: Test Example 6: soil treatment, wild oat, visual growth inhibition; conditions: 24 h, soil treatment one day after sowing, 28th day after treatment, read-out: Growth Inhibition Rate of Wild oat (%) Measured Value
Method: as §1
as §2, with “1/300,000-ha” for “1/1,000,000-ha”, “wild oat (Avena fatua L.)” for “velvetleaf (Abutilon theophrasti Medic.)”
On the 28th day after the treatment, the state of growth of the wild oat was visually observed and examined.

## Cn1nc(C(F)(F)F)c(CS(=O)(=O)C2=NOC(C)(C)C2)c1OC(F)F [pyroxasulfone, 3-[5-(difluoromethoxy)-1-methyl-3-(trifluoromethyl)pyrazol-4-ylmethylsulfonyl]-4,5-dihydro-5,5-dimethyl-1,2-oxazole]
[1]; dose 50 g/ha
  inhibition at 50 g/ha: 40%
[1]
  inhibition at 100 g/ha: 70%
[1]; dose 300 g/ha
  inhibition at 300 g/ha: 80%
[2]; dose 12.5 g/ha
  inhibition at 12.5 g/ha: 13%
[3]; dose 25 g/ha
  inhibition at 25 g/ha: 20%
[4]; dose 125 g/ha
  inhibition at 125 g/ha: 90%
[5]; dose 25 g/ha
  inhibition at 25 g/ha: 0%
[5]; dose 200 g/ha
  inhibition at 200 g/ha: 40%
[6]
  inhibition at 50 g/ha: 20%
[6]; dose 150 g/ha
  inhibition at 150 g/ha: 30%
[6]; dose 300 g/ha
  inhibition at 300 g/ha: 30%
[7]; dose 12.5 g/ha
  inhibition at 12.5 g/ha: 0%

## COc1cc(OC)nc(NC(=O)NS(=O)(=O)c2ncccc2C(=O)N(C)C)n1 [nicosulfuron, 2-(4,6-dimethoxypyrimidin-2-ylcarbamoylsulfamoyl)-N,N-dimethylnicotinamide]
[1]; dose 20 g/ha
  inhibition at 20 g/ha: 0%
[1]
  inhibition at 100 g/ha: 10%
[4]; dose 30 g/ha
  inhibition at 30 g/ha: 35%

## COc1cc(OC)nc(NC(=O)NS(=O)(=O)c2ncccc2C(F)(F)F)n1 [flazasulfuron, 1-(4,6-dimethoxypyrimidin-2-yl)-3-(3-trilfuoromethyl-2-pyridylsulfony)urea]
[2]; dose 50 g/ha
  inhibition at 50 g/ha: 94%
[3]; dose 12.5 g/ha
  inhibition at 12.5 g/ha: 33%
[5]; dose 50 g/ha
  inhibition at 50 g/ha: 70%
[6]; dose 25 g/ha
  inhibition at 25 g/ha: 50%
[6]
  inhibition at 50 g/ha: 60%
[6]; dose 100 g/ha
  inhibition at 100 g/ha: 80%
[7]; dose 100 g/ha
  inhibition at 100 g/ha: 85%
